Key:
[1] = test system: Anguilla japonica leptocephali; experiment: Induction of Anguilla japonica metamorphosis by T4 treatment in 23° C. breeding water; format: in vivo; parameters: key: Y: Metamorphosis completed (seed production completed).; Nd: Dead.; Nf: Food intake unidentified.; Ng: Not metamorphosed into glass eels
From the text: (§1) Stage 1: Starting phase of metamorphosis. The rostral end is rounded, and intestinal degeneration starts.
(§2) Stage 2: Peak phase of metamorphosis. Intestinal degeneration becomes pronounced. In the second half, the anus reaches to near the last vertical blood vessel (VBV last).
(§3) Stage 3: Late phase of metamorphosis. The preanal length (PAL) becomes equal to or shorter than the last vertical blood vessel length (VBV last Length) (PAL VBV last Length). The body height is apparently low.
(§4) Stage 4: Pre-glass eel stage. Almost the eel form, but the body height still remains. Melanophores on the body surface or endogenous melanophores are not yet seen.
(§5) Elver stage: Juvenile stage. Food intake can be identified.
(§6) A thyroid hormone (e.g., thyroxine (T4)) is adjusted to 50 to 100 mM in a 1- to 2-mL volume messflask. As a solvent, known solvents (water, alcohol) can be used. Ethanol is preferably used as the solvent.
(§7) For example, using ethanol as a solvent, T4 adjusted to 50 mM is diluted 500-fold, 5,000-fold, and 50,000-fold, respectively, and adjusted to […], 1 μM, and 100 nM. A feed can be prepared in this manner.
(§8) Artificial seawater is added to a breeding vessel, and 1/1000 of the […] T4 is added to prepare […] T4 breeding water.
(§9) Half of the breeding water is replaced every two days with breeding water of the same concentration. In the case where the concentration is changed, for example, in the case of changing from 10 nM to 2 nM, 80% to the breeding water is removed, and unadjusted artificial seawater is newly added to make 1 L.
(§10) Leptocephali visually considered to have reached a total length of 40 mm (or may be 30 mm to 50 mm, may be 35 mm to 45 mm, or may also be 35 mm or more, 40 mm or more, or 45 mm or more) are selected, anesthetized with 2-phenoxyethanol, and then photographed, and the total length of each larva is measured using an image analyzing device.
(§11) The larvae are placed in 10 nM T4 breeding water and then placed in an incubator set at 23° C., and breeding is started. In first one week, observation is performed every two days, and half of the 10 nM T4 breeding water is replaced each time. The average amount of thyroid hormone in the breeding water in stage 1 is 1 nM to 100 nM, for example, and may also be 3 nM to 30 nM, or 5 nM to 20 nM.
(§12) For larvae visually judged to have reached the second half of stage 2, the concentration of the breeding water is changed. The breeding water is diluted 5-fold or 10-fold and adjusted to 2 nM or 1 nM T4, and breeding is continued. The average amount of thyroid hormone in the breeding water in stage 2 may be, as compared with the breeding water of stage 1, diluted 2-fold to 20-fold, diluted 3 to 15-fold, or diluted 5 to 10-fold as described above. The average amount of thyroid hormone in the breeding water in stage 2 is 0.1 nM to 20 nM, for example, and may also be 0.5 nM to 10 nM, 1 nM to 5 nM, or 1 nM to 2 nM.
For larvae visually judged to have reached stage 3, the breeding water is quickly changed 0.2 nM T4 breeding water, which is a 5-fold dilution of 1 nM T4 breeding water, and further changed to 0.1 nM T4 breeding water on the following day. […] Also, in larvae whose anus position has not reached the last vertical hemal spine, when they are judged to be on the brink of stage 3, the concentration is changed as above. The average amount of thyroid hormone in the breeding water in stage 3 may be, as compared with the breeding water of stage 2, diluted 2-fold to 50-fold, diluted 3 to 15-fold, diluted 4 to 6-fold, or diluted 5-fold as described above. The average amount of thyroid hormone in the breeding water in stage 3 is 0.01 nM to 2 nM, for example, and may also be 0.05 nM to 1 nM, 0.1 nM to 0.5 nM, or 0.1 nM to 0.2 nM. […] That is, the concentration may be changed such that the thyroid hormone becomes undetectable in the breeding water in the course of stage 3.
In stage 3, breeding is continuously performed in the 0.1 nM T4 breeding water. […]

[2] = test system: Anguilla japonica leptocephali; experiment: as above; format: in vivo; parameters: key: Y: Metamorp completed (seed production completed).; Nd: Dead
From the text: as §1, §2, §3, §4, §5, §6, §7, §8, §9, §10, §11, §12
For larvae visually judged to have reached stage 3, the breeding water is quickly changed 0.2 nM T4 breeding water, which is a 5-fold dilution of 1 nM T4 breeding water, and further changed to 0.1 nM T4 breeding water on the following day. […] Also, in larvae whose anus position has not reached the last vertical hemal spine, when they are judged to be on the brink of stage 3, the concentration is changed as above. […]

In the case of `N[C@@H](Cc1cc(I)c(Oc2cc(I)c(O)c(I)c2)c(I)c1)C(=O)O` [T4, thyroxine], the Elver ([1]; individual Exp 6-2, 129 days old, total length 38.1 mm at start of T4 treatment) was “Y”, the Elver ([1]; individual Exp 6-3, 129 days old, total length 37.4 mm at start of T4 treatment) was “Y” and the Elver ([1]; individual Exp 6-4, 129 days old, total length 36.6 mm at start of T4 treatment) was “Y”. The Elver ([1]; individual Exp 6-5, 129 days old, total length 36.4 mm at start of T4 treatment) was “Ng”, the Elver ([1]; individual Exp 6-6, 129 days old, total length 34.6 mm at start of T4 treatment) was “Nf” and the Elver ([1]; individual Exp. 6-1, 129 days old, total length 40.6 mm at start of T4 treatment) was “Y”. For the same compound, the Elver ([2]; individual Exp 5-4, 175 days old, total length 43.5 mm at start of T4 treatment) was “Y”, the Elver ([2]; individual Exp 5-5, 174 days old, total length 36.1 mm at start of T4 treatment) was “Y” and the Elver ([2]; individual Exp. 5-1, 175 days old, total length 38.5 mm at start of T4 treatment) was “Y”. The Elver ([2]; individual Exp. 5-2, 175 days old, total length 41.3 mm at start of T4 treatment) was “Y” and the Elver ([2]; individual Exp. 5-3, 175 days old, total length 41.7 mm at start of T4 treatment) was “Y”.

From patent publication US20200093103A1, “BREEDING WATER FOR ANGUILLIFORMES AND METHOD FOR REARING ANGUILLIFORMES” (SHIN NIPPON BIOMEDICAL LABORATORIES, LTD., priority 2016, published 2020)
